A word on the Ki: it is a dissociation constant, usually derived from enzyme kinetics or from competition with a known ligand.

The structures appear in SMILES notation. Calls of active or inactive are those of the source. Where only a bound is given, the exact number is not on record here.

Common to all, as to assay type: functional
In assay [1] the target is Serine/threonine-protein kinase D2 (Homo sapiens, UniProt Q9BZL6).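 Note: measured against PRKD2 as one member of a kinome-wide kinase profiling panel.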
The target in assay [2] is Dual specificity protein kinase CLK2 (Homo sapiens, UniProt P49760).
The target of assay [3] is MAP kinase-interacting serine/threonine-protein kinase 2 (Homo sapiens, UniProt Q9HBH9).
Assay [4] deals with Protein kinase C iota type (Homo sapiens, UniProt P41743).
Assay [5] addresses Homeodomain-interacting protein kinase 4 (Homo sapiens, UniProt Q8NE63).
Assay [6] deals with Serine/threonine-protein kinase DCLK1 (Homo sapiens, UniProt O15075).
For assay [7], the target named is T1, Interleukin-1 receptor-associated kinase 4 (Homo sapiens, UniProt Q9NWZ3).
T1 sequence (Q9NWZ3 whole entry): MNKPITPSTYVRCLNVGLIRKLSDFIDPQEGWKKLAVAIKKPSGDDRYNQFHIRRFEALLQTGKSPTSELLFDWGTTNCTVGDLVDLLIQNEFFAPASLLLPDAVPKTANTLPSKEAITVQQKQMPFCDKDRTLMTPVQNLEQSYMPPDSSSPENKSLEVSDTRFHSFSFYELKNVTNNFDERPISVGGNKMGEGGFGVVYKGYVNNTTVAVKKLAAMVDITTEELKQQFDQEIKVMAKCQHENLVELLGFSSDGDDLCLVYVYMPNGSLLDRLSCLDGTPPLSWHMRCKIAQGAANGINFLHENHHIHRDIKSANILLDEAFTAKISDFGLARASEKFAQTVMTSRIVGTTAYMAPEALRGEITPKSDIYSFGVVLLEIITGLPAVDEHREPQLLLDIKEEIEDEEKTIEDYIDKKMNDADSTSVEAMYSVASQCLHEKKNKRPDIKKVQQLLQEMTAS

Assay [8] deals with Serine/threonine-protein kinase PAK 4 (Homo sapiens, UniProt O96013).
The target of assay [9] is Glycogen synthase kinase-3 alpha (Homo sapiens, UniProt P49840).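 Note: GSK3A result taken from a broad kinome-wide kinase panel.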
Assay [10] addresses STE20-like serine/threonine-protein kinase (Homo sapiens, UniProt Q9H2G2).
Assay [11] has as its target Protein kinase C gamma type (Homo sapiens, UniProt P05129).
Assay [12] has as its target Serine/threonine-protein kinase Nek2 (Homo sapiens, UniProt P51955).
Assay [13] deals with Serine/threonine-protein kinase 3 (Homo sapiens, UniProt Q13188).
The target in assay [14] is Ribosomal protein S6 kinase beta-1 (Homo sapiens, UniProt P23443).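 Note: measured as one member of a kinome-wide profiling panel.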
The target of assay [15] is MAP kinase-activated protein kinase 2 (Homo sapiens, UniProt P49137).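 Note: measured as one member of a kinome-wide kinase panel.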
The next assay deals with Misshapen-like kinase 1 (Homo sapiens, UniProt Q8N4C8).
In assay [16] the target is Mitogen-activated protein kinase 12 (Homo sapiens, UniProt P53778).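 Note: measured as one member of a kinome-wide kinase profiling panel.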
The target of assay [17] is Protein kinase C zeta type (Homo sapiens, UniProt Q05513).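 Note: measured as one member of a broad kinase profiling panel.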
Assay [18] concerns the target Calcium/calmodulin-dependent protein kinase type II subunit gamma (Homo sapiens, UniProt Q13555).
Assay [19] addresses Serine/threonine-protein kinase BRSK1 (Homo sapiens, UniProt Q8TDC3).
Assay [20] concerns the target Serine/threonine-protein kinase pim-1 (Homo sapiens, UniProt P11309).
The target in a further assay is SRSF protein kinase 1 (Homo sapiens, UniProt Q96SB4).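 Note: measured as one member of a kinome-wide kinase profiling panel.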
Assay [21] deals with Casein kinase II subunit alpha (Homo sapiens, UniProt P68400).

Mitogen-activated protein kinase 12, sequence (P53778 whole entry): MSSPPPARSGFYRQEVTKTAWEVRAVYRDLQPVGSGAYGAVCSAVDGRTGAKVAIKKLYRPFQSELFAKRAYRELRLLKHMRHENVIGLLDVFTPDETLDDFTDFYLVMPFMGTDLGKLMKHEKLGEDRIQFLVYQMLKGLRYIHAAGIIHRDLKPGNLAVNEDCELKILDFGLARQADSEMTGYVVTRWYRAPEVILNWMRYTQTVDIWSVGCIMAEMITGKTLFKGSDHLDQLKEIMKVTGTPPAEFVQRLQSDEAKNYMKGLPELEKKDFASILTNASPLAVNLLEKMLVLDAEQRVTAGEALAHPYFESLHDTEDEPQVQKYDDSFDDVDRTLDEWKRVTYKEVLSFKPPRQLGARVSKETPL
Glycogen synthase kinase-3 alpha, sequence (P49840 whole entry): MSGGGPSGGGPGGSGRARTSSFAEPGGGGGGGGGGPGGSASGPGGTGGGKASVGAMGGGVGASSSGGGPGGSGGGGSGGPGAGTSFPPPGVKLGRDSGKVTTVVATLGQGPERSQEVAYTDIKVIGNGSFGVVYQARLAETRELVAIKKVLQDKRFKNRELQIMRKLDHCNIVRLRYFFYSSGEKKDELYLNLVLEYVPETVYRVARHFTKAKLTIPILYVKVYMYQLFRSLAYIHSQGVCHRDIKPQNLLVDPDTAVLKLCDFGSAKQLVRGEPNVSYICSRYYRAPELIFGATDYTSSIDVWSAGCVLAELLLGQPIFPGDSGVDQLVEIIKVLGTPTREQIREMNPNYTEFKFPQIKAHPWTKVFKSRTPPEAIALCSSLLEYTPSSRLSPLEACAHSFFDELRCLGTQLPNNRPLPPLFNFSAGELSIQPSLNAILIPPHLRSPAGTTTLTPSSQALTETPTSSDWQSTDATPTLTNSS
Serine/threonine-protein kinase 3, sequence (Q13188 whole entry): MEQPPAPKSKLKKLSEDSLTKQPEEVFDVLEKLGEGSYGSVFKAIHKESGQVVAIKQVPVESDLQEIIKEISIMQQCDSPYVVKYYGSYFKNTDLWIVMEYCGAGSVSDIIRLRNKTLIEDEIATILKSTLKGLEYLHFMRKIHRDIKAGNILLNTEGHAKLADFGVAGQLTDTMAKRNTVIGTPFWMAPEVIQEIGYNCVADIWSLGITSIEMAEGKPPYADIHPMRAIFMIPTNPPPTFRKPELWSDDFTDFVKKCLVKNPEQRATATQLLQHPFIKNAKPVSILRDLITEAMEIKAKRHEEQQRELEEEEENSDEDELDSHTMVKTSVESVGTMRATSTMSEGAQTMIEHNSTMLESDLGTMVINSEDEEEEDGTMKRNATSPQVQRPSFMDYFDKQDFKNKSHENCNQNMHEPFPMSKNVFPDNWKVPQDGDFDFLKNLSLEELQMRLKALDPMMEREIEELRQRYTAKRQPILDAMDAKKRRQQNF
Protein kinase C iota type, sequence (P41743 whole entry): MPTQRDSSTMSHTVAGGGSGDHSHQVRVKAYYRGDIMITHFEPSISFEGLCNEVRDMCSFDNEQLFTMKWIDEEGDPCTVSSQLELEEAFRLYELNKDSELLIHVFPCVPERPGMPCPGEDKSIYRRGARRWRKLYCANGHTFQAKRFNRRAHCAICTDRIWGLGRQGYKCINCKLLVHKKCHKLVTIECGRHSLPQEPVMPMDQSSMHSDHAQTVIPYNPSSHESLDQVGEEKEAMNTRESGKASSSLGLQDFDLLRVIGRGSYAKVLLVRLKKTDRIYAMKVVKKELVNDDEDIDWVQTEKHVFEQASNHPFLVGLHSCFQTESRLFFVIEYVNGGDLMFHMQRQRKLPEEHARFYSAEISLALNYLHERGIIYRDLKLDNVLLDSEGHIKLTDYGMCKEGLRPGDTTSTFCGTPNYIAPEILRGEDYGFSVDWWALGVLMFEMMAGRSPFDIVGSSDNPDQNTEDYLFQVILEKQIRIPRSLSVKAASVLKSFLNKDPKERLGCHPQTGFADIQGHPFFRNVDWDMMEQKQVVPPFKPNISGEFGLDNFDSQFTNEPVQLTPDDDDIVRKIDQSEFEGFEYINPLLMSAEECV
STE20-like serine/threonine-protein kinase, sequence (Q9H2G2 whole entry): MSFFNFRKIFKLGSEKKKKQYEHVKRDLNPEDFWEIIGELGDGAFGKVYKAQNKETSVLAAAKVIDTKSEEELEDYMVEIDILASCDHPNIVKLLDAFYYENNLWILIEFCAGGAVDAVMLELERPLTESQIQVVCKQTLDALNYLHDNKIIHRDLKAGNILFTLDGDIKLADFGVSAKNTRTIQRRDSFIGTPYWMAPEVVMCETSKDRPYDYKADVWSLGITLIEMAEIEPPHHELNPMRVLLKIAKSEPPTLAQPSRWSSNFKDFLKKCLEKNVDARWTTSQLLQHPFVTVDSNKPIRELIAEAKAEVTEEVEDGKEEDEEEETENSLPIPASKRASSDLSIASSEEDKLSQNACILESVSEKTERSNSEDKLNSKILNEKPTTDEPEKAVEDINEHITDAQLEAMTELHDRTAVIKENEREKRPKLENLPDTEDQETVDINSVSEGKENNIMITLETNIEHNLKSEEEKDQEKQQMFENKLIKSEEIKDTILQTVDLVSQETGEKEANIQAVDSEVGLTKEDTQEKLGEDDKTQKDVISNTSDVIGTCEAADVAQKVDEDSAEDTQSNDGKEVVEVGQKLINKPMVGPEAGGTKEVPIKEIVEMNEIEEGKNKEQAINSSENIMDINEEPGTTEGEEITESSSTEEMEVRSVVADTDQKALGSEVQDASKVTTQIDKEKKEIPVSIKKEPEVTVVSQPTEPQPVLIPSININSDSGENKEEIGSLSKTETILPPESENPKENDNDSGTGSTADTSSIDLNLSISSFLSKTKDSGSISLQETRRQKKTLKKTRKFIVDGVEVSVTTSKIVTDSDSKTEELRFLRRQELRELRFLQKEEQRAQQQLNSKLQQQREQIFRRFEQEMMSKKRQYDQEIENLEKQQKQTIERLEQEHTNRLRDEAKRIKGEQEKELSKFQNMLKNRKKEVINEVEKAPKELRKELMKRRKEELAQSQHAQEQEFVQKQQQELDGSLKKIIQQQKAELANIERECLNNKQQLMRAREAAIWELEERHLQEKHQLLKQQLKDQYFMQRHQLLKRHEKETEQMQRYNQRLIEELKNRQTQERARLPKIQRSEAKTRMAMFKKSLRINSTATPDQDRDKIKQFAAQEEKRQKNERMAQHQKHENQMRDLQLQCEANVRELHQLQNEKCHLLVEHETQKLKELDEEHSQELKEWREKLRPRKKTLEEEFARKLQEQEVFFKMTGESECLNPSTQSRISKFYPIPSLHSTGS
Serine/threonine-protein kinase D2, sequence (Q9BZL6 whole entry): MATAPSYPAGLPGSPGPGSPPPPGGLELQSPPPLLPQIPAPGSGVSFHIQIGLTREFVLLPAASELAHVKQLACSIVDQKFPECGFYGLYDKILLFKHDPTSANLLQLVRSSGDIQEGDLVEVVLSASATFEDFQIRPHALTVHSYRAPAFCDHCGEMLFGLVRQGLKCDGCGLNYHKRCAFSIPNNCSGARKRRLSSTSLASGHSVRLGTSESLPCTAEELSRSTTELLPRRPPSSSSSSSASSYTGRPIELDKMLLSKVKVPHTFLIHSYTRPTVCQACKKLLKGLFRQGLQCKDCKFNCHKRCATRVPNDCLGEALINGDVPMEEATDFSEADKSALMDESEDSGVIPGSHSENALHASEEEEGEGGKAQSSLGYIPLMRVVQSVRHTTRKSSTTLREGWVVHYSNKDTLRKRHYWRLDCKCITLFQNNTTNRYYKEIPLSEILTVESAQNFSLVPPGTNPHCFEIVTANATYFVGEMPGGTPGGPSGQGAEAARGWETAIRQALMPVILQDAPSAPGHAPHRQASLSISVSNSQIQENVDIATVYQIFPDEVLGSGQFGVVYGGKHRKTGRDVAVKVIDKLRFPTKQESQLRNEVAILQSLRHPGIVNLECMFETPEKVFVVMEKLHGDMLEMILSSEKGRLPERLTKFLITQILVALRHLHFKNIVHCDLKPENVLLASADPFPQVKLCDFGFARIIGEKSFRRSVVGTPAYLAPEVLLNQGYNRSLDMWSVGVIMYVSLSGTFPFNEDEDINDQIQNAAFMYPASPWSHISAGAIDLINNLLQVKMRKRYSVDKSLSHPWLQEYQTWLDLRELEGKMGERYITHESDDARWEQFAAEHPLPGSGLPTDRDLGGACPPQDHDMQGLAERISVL

As for `NNc1cc(N2CCOCC2)nc(OCCc2ccccn2)n1`, the Ki in [1] is > 10 µM (inactive); in assay [2], > 5.01 µM (inactive); in assay [3] it was > 10 µM (inactive); in assay [4], > 5.01 µM (inactive); in assay [5] it was > 7.94 µM (inactive); in assay [6], > 10 µM (inactive). Further, the Ki was 2.51 µM (active) in assay [7]; > 5.01 µM (inactive) in [8]; > 7.94 µM (inactive) in assay [9]; > 10 µM (inactive) in assay [10]; > 7.94 µM (inactive) in assay [11]; > 10 µM (inactive) in [12]. In addition, the Ki was > 7.94 µM (inactive) in [13]; > 6.31 µM (inactive) in [14]; > 7.94 µM (inactive) in assay [15]; > 7.94 µM (inactive) on Misshapen-like kinase 1; > 6.31 µM (inactive) in assay [16]; > 7.94 µM (inactive) in assay [17]. Further, the Ki in [18] is > 6.31 µM (inactive); in assay [19] it was 7.94 µM (active); in assay [20] it was > 6.31 µM (inactive); on SRSF protein kinase 1 it was > 7.94 µM (inactive); in assay [21], > 6.31 µM (inactive).

The record behind these values is ChEMBL document CHEMBL1201862, “PubChem BioAssay data set” (2004).
